According to patent US7923465B2, “Cannabinoid receptor ligands, pharmaceutical compositions containing them, and process for their preparation” (priority 2005, dated 2011):
Where two headings read alike, the source gives them in different places.

Legend:
hCB2 = hCB2 (Homo sapiens, UniProt P34972); assay: In vitro binding assay using hCB2-CHO membranes, [3H]-CP-55,940 displacement (Protocol IV); parameters: expressed in transfected cells; host or cells: CHO (hCB2-CHO, generated in-house); settings: 1 h, read-out: % Displacement Protocol IV
Chain of hCB2 (P34972 whole entry): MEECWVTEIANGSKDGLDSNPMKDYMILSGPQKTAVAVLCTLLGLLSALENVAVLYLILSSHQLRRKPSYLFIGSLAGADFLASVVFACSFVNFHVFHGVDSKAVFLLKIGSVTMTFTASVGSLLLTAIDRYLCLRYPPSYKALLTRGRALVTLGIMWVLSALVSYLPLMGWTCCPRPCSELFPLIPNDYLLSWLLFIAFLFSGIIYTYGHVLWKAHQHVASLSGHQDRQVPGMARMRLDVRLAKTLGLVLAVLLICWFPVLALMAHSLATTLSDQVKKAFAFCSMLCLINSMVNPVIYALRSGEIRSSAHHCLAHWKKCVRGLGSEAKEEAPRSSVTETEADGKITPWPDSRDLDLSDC
How it was run: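 Compounds were tested at a single 300 nM final concentration for displacing 0.75 nM [3H]-CP-55,940 from hCB2-CHO membranes (1 h, 30 °C, 50 mM Tris pH 7.4, 5 mM MgCl2, 1 mM EDTA, 0.1% BSA). Filter-bound radioactivity was counted, with 0.5 μM unlabelled CP-55,940 for nonspecific binding; results are % displacement.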

CB1 [1] = molecular target: T1, CB1 (Rattus norvegicus, UniProt P20272); assay: GTPγS binding assay, CB1 functional assay in rat cerebellar membrane (Protocol VIII); type: biochemical; parameters: 10 μg rat cerebellum membrane; from tissue; host or cells: rat cerebellum membrane, prepared in-house; settings: for activation at 1 µM / activation at 0.3 µM: 1 h, read-out: Per Se % Stimulation; for inhibition at 1 µM / inhibition at 0.3 µM: read-out: % Inhibition of WIN-55212-2 induced stimulation; for activation at 0.3 µM: tested at 300 nM; for inhibition at 0.3 µM: tested at 300 nM in presence of 1 μM WIN 55,212-2
T1 sequence (P20272 whole entry): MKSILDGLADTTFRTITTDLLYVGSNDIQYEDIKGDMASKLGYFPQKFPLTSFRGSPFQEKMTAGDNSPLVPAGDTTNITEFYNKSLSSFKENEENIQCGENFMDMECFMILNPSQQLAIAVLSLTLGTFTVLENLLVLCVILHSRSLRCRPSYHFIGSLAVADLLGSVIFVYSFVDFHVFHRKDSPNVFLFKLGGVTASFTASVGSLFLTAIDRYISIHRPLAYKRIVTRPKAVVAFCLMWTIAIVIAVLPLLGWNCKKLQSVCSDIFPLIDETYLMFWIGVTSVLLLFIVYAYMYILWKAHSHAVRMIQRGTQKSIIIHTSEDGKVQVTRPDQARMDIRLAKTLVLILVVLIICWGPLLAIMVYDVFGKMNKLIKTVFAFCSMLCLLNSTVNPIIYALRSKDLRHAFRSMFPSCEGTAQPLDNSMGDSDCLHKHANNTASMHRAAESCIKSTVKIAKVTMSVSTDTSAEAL
Protocol: VIII. Protocol for GTPγS Binding Assay (CB1 Functional Assay in Rat Cerebellar Membrane)
In this GTPγS binding assay, total, basal and nonspecific binding were determined. See Griffin G., Atkinson P. J., Showalter V. M., Martin B. R. and Abood M. E., “Evaluation of cannabinoid receptor agonists and antagonists using the Guanosine-5′-O-(3-(^35S)thio)-triphosphate binding assay in rat cerebellar membranes,” J Pharmacol Exp Ther 285: 553-560, 1998. Three wells for total binding, three wells for basal binding, and three wells for nonspecific binding at 0.2 nM concentration of radioligand were used. Basal binding was defined by 50 μM GDP (Guanosine diphosphate) and non-specific binding was defined by 10 μM unlabeled GTPγS. 10 μg rat cerebellum membrane, 50 μM of GDP, WIN-55212-2 or test compound (1 μM or 300 nM), 10 μM unlabeled GTPγs, and 0.2 nM of [^35S]GTPγS were added into a 96 well plate and the final volume of the reaction mixture was made with GTPγS buffer (50 mM Tris, 3 mM anhydrous MgCl2, 0.2 mM EGTA and 100 mM NaCl pH 7.4) to 200 μl. The plates were incubated at 30° C. for 1 hour. Then the reaction was stopped by filtration using a Whatman GF/B-96 microfilter plate. Three washings were given using Tris-HCl. The radioactivity bound to the brain membrane was retained on the filter disks to which scintillation fluid was added (Microscint PS). Then plates were read for radioactive counts using a Beta Liquid Scintillation Counter (Packard Instruments, Ill., USA).
The rat cerebellar brain membrane was prepared as follow: • 1. Sacrifice the rat and take out the whole brain and separate cerebellum as fast as possible and keep it on ice. • 2. Take the weight of the cerebellum and homogenize in 30 ml of homogenizing buffer (50 mM Tris-HCL containing 1 mM EDTA and 5% sucrose, pH 7.5) using homogenizer in cold condition. • 3. Centrifuge the homogenized cerebellum at 18000 rpm (38000 g) for 15 min at 4° C. • 4. Resuspend the pellet in 5 ml 50 mM Tris-HCL containing 1 mM EDTA and keep it on ice for 30 min. • 5. Pass the membrane through insulin syringe to ensure uniform suspension. • 6. Centrifuge the membrane at 18000 rpm at 4° C. for 20 min. • 7. Reconstitute the pellet in 3 ml of GTPγS buffer and estimate the protein by BCA assay and store the membrane in aliquots of 1000 μg of protein. CB1 Agonist and Antagonist Activity Screening Assay
The test compounds were screened at a final concentration of 1 μM or 300 nM in the absence and presence of 1 μM of WIN 55, 212-2 in the same manner as described in the GTPγS binding assay.
An agonist will stimulate the GTPγS binding over the basal.
An inverse agonist will decrease the basal GTPγS binding and/or produce more than 100% inhibition of the agonist (WIN-55212-2) induced stimulation.
The percent stimulation of GTPγS binding by each test compound at 1 μM or 300 nM concentration in the absence and presence of 1 μM WIN 55, 212-2 was calculated by comparing it with basal specific bound (Basal binding—Non Specific binding) values.

CB1 [2] = molecular target: T1, CB1; assay: Rat CB1 receptor binding using brain membrane, [3H]SR141716A displacement (Protocol I); parameters: CB1 receptor present in a rat brain membrane preparation; from tissue; host or cells: rat brain membrane; inhibition: dose or concentration left out as unconfirmed; settings: 1 h
[3] = hCB2-CHO membranes, [3H]-CP-55,940 displacement
[4] = GTPγS binding over basal, rat cerebellar membrane, tested at 1 uM
[5] = GTPγS binding, tested at 1 uM in presence of 1 μM WIN 55,212-2
[6] = rat brain membrane, [3H]SR141716A displacement, read-out: % Displacement Protocol I
[7] = read-out: % Displacement Protocol I, rat brain membrane, [3H]SR141716A displacement
[8] = GTPγS binding over basal, rat cerebellar membrane

| Structure (SMILES) | melting point | inhibition at 0.3 µM (hCB2; [3]) | Per Se % Stimulation (CB1 [1]; [4]) | % Inhibition of WIN-55212-2 induced stimulation (CB1 [1]; [5]) | inhibition (CB1 [2]; [6]) | activation at 1 µM (CB1 [1]; [4]) | inhibition at 1 µM (CB1 [1]; [5]) | inhibition at 0.3 µM (hCB2) | inhibition (CB1 [2]; [7]) | activation at 0.3 µM (CB1 [1]; [8]) | inhibition at 0.3 µM (CB1 [1]; GTPγS binding) |
| --- | --- | --- | --- | --- | --- | --- | --- | --- | --- | --- | --- |
| O=C(NNc1ccccc1)c1nn(-c2ccc(Cl)cc2)c2c1C1CC3CC(C1)CC2C3 [Example 121, N(7)-(N′-phenylamino)-5-(4-chlorophenyl)-5,6-diazatetracyclo[7.3.1.1^3,11.0^4,8]tetradeca-4(8),6-diene-7-carboxamide] | 103 to 105 °C | 29.8% | 16.0% | 81.3% | 65.4% |  |  |  |  |  |  |
| O=C(NNc1ccccc1Cl)c1nn(-c2ccc(Cl)cc2)c2c1C1CC3CC(C1)CC2C3 [Example 123, N(7)-(2-Chlorophenylamino)-5-(4-chlorophenyl)-5,6-diazatetracyclo[7.3.1.1^3,11.0^4,8]tetradeca-4(8),6-diene-7-carboxamide] | 155 °C | 47.6% |  |  | 89% | 13.5% | 99.1% |  |  |  |  |
| Cl.O=C(NNc1ccc(F)cc1)c1nn(-c2ccc(Cl)cc2)c2c1C1CC3CC(C1)CC2C3 [Example 131, N(7)-(4-Fluorophenylamino)-5-(4-chlorophenyl)-5,6-diazatetracyclo[7.3.1.1^3,11.0^4,8]tetradeca-4(8),6-diene-7-carboxamide hydrochloride] | 175 °C |  |  |  |  | -1.7% | 86% | 10.8% | 85.2% |  |  |
| O=C(NNc1ccc(F)cc1F)c1nn(-c2ccc(Cl)cc2)c2c1C1CC3CC(C1)CC2C3 [Example 132, N(7)-(2,4-Difluorophenylamino]-5-(4-chlorophenyl)-5,6-diazatetracyclo[7.3.1.1^3,11.0^4,8]tetradeca-4(8),6-diene-7-carboxamide] | 195 to 196 °C | 3.94% |  |  | 64.5% | 7.2% | 89.2% |  |  |  |  |
| Cc1ccc(-n2nc(C(=O)NCc3ccccc3Cl)c3c2C2CC4CC(CC3C4)C2)cc1 [Example 162, N(7)-(2-Chlorobenzyl)-5-(4-methylphenyl)-5,6-diazatetracyclo[7.3.1.1^3,11.0^4,8]tetradeca-4(8),6-diene-7-carboxamide] | 127 to 130 °C | 33.8% |  |  | 38.9% |  |  |  |  | -29.2% | 72% |
| O=C(NCc1ccc(F)cc1)c1nn(-c2ccc(Cl)cc2Cl)c2c1C1CC3CC(C1)CC2C3 [Example 172, N(7)-(4-Fluorobenzyl)-5-(2,4-dichlorophenyl)-5,6-diazatetracyclo[7.3.1.1^3,11.0^4,8]tetradeca-4(8),6-diene-7-carboxamide] | 68 to 70 °C | 25.1% |  |  | 59.2% | -18.3% | 115% |  |  |  |  |
| O=C(NNc1ccccc1Cl)c1nn(-c2ccc(Cl)cc2Cl)c2c1C1CC3CC(C1)CC2C3 [Example 174, N(7)-(2-Chlorophenylamino)-5-(2,4-dichlorophenyl)-5,6-diazatetracyclo[7.3.1.1^3,11.0^4,8]tetradeca-4(8),6-diene-7-carboxamide] | 110 °C | 22.5% |  |  | 76.4% | -20.8% | 75.5% |  |  |  |  |
| O=C(NCCc1ccccc1)c1nn(-c2ccc(Cl)cc2Cl)c2c1C1CC3CC(C1)CC2C3 [Example 178, N(7)-(2-Phenylethyl)-5-(2,4-dichlorophenyl)-5,6-diazatetracyclo[7.3.1.1^3,11.0^4,8]tetradeca-4(8),6-diene-7-carboxamide] | 63 to 66 °C | 6.04% |  |  | 47% | -0.7% | 88% |  |  |  |  |
| CC12CCC(C1)C(C)(C)C2NC(=O)c1nn(-c2ccc(Cl)cc2Cl)c2c1C1CCC2C1 (centres unmarked) [Example 241, N(3)-(1,3,3-Trimethylbicyclo[2.2.1]hept-2-yl)-1-(2,4-dichlorophenyl)-4,5,6,7-tetrahydro-1H-4,7-methano-indazole-3-carboxamide] | 156 to 159 °C |  |  |  |  |  |  |  | 92.5% | 54.7% | 32.9% |
| C[C@@H](NC(=O)c1nn(-c2ccc(Cl)cc2Cl)c2c1C1CCC2C1)c1ccccc1 (stereo partly drawn) [Example 253, N(3)-[R-(1-phenylethyl)]-1-(2,4-dichlorophenyl)-4,5,6,7-tetrahydro-1H-4,7-methano-indazole-3-carboxamide] | 89 to 92 °C |  |  |  | 63% |  |  |  |  | -9.3% | 79.9% |
| O=C(NNc1ccccc1)c1nn(-c2ccc(Cl)cc2Cl)c2c1C1CCC2C1 (centres unmarked) [Example 256, N(3)-Phenylamino-1-(2,4-dichlorophenyl)-4,5,6,7-tetrahydro-1H-4,7-methano-indazole-3-carboxamide] | 182 to 185 °C |  |  |  | 63.3% | -21.5% | 69.7% |  |  |  |  |
| O=C(NNc1ncccc1Cl)c1nn(-c2ccc(Cl)cc2Cl)c2c1C1CCC2C1 (centres unmarked) [Example 267, N(3)-[(3-chloropyridin-2-yl)amino]-1-(2,4-dichlorophenyl)-4,5,6,7-tetrahydro-1H-4,7-methano-indazole-3-carboxamide] | 95 °C |  |  |  | 90% |  |  |  |  | 12.3% | 43.6% |
| O=C(NC1CCCCC1)c1nn(-c2ccc(F)cc2F)c2c1C1CCC2C1 (centres unmarked) [Example 290, N(3)-Cyclohexyl-1-(2,4-difluorophenyl)-4,5,6,7-tetrahydro-1H-4,7-methano-indazole-3-carboxamide] | 119 °C |  |  |  |  | 3.8% | 35.3% |  | 80.3% |  |  |
| O=C(NCc1ccccc1)c1nn(-c2ccc(Cl)cc2Cl)c2c1C1CCC2c2ccccc21 (centres unmarked) [Example 501, N(12)-Benzyl-10-(2,4-dichlorophenyl)-10,11-diazatetracyclo[6.5.2.0^2,7.0^9,13]pentadeca-2,4,6,9(13),11-pentaene-12-carboxamide] | 164 to 166 °C |  |  |  | 82.5% | 53.7% | 40.1% |  |  |  |  |
| O=C(NN1CCCCC1)c1nn(-c2ccc(Cl)cc2Cl)c2c1C1CCC2c2ccccc21 (centres unmarked) [Example 502, N(12)-Piperidino-10-(2,4-dichlorophenyl)-10,11-diazatetracyclo[6.5.2.0^2,7.0^9,13]pentadeca-2,4,6,9(13),11-pentaene-12-carboxamide] | 164 to 166 °C |  |  |  | 81.3% | 1.8% | 91.1% |  |  |  |  |
